Data reported in the supplement of paper PMC10307832.

Columns and labels:
Test in all cases: relative viability (nuclei count vs DMSO), 5 days (fraction); higher = more cells survive
HCC-827 = test system: HCC-827
Summary of the method: (§1)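 Relative viability divides the nuclei count in treated wells by that in vehicle wells. Lung cancer cell lines were seeded in 1536-well plates, dosed by pin tool the next day, and fixed and stained after 5 days in one step with final 0.05% Triton X-100, 1% formaldehyde and 1 ug/ml Hoechst. Dosing was a single drug or a fixed anchor-drug dose plus five library-drug doses (not always all listed) in √10 steps, and values are medians of duplicate plates imaged at 4×.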

NCI-H2126 = test system: NCI-H2126
Summary of the method: as §1

NCI-H1395 = test system: NCI-H1395
Summary of the method: as §1

LXF-289 = test system: LXF-289
Summary of the method: as §1

NCI-H650 = test system: NCI-H650
Summary of the method: as §1

NCI-H2170 = test system: NCI-H2170
Summary of the method: as §1

NCI-H647 = test system: NCI-H647
Summary of the method: as §1

NCI-H2347 = test system: NCI-H2347
Summary of the method: as §1

NCI-H358 = test system: NCI-H358
Summary of the method: as §1

RERF-LC-KJ = test system: RERF-LC-KJ
Summary of the method: as §1

NCI-H23 = test system: NCI-H23
Summary of the method: as §1

SW 900 = test system: SW 900
Summary of the method: as §1

LCLC-103H = test system: LCLC-103H
Summary of the method: as §1

PC-3 [JPC-3] = test system: PC-3 [JPC-3]
Summary of the method: as §1

NCI-H441 = test system: NCI-H441
Summary of the method: as §1

LOU-NH91 = test system: LOU-NH91
Summary of the method: as §1

NCI-H1793 = test system: NCI-H1793
Summary of the method: as §1

ChaGo-K-1 = test system: ChaGo-K-1
Summary of the method: as §1

NCI-H322M = test system: NCI-H322M
Summary of the method: as §1

HOP-62 = test system: HOP-62
Summary of the method: as §1

EPLC-272H = test system: EPLC-272H
Summary of the method: as §1

NCI-H1651 = test system: NCI-H1651
Summary of the method: as §1

NCI-H1755 = test system: NCI-H1755
Summary of the method: as §1

NCI-H2228 = test system: NCI-H2228
Summary of the method: as §1

Nc1cccc2c1CN(C1CCC(=O)NC1=O)C2=O (stereo not given) [Lenalidomide] + CC(=O)c1c(C)c2cnc(Nc3ccc(N4CCNCC4)cn3)nc2n(C2CCCC2)c1=O [Palbociclib] (partner 0.5 µM)
relative viability (HCC-827; first compound 0.253 µM): 0.506
relative viability (HCC-827; first compound 0.8 µM): 0.432
relative viability (HCC-827; first compound 2.53 µM): 0.538
relative viability (HCC-827; first compound 8 µM): 0.489
relative viability (NCI-H2126; first compound 0.253 µM): 0.359
relative viability (NCI-H2126; first compound 0.8 µM): 0.383
relative viability (NCI-H2126; first compound 2.53 µM): 0.328
relative viability (NCI-H2126; first compound 8 µM): 0.332
relative viability (NCI-H1395; first compound 0.253 µM): 0.649
relative viability (NCI-H1395; first compound 2.53 µM): 0.701
relative viability (NCI-H1395; first compound 8 µM): 0.592
relative viability (LXF-289; first compound 0.253 µM): 0.616
relative viability (LXF-289; first compound 0.8 µM): 0.63
relative viability (LXF-289; first compound 2.53 µM): 0.657
relative viability (LXF-289; first compound 8 µM): 0.668
relative viability (NCI-H650; first compound 0.253 µM): 0.405
relative viability (NCI-H650; first compound 0.8 µM): 0.303
relative viability (NCI-H650; first compound 2.53 µM): 0.326
relative viability (NCI-H650; first compound 8 µM): 0.355
relative viability (NCI-H2170; first compound 0.253 µM): 0.436
relative viability (NCI-H2170; first compound 0.8 µM): 0.374
relative viability (NCI-H2170; first compound 2.53 µM): 0.433
relative viability (NCI-H2170; first compound 8 µM): 0.314
relative viability (NCI-H647; first compound 0.253 µM): 0.467
relative viability (NCI-H647; first compound 0.8 µM): 0.36
relative viability (NCI-H647; first compound 2.53 µM): 0.402
relative viability (NCI-H647; first compound 8 µM): 0.287
relative viability (NCI-H2347; first compound 0.253 µM): 0.492
relative viability (NCI-H2347; first compound 0.8 µM): 0.446
relative viability (NCI-H2347; first compound 2.53 µM): 0.494
relative viability (NCI-H2347; first compound 8 µM): 0.424
relative viability (NCI-H358; first compound 0.8 µM): 0.139
relative viability (NCI-H358; first compound 2.53 µM): 0.142
relative viability (NCI-H358; first compound 8 µM): 0.132
relative viability (RERF-LC-KJ; first compound 0.253 µM): 1.09
relative viability (RERF-LC-KJ; first compound 0.8 µM): 1.06
relative viability (RERF-LC-KJ; first compound 2.53 µM): 1.21
relative viability (RERF-LC-KJ; first compound 8 µM): 1.03
relative viability (NCI-H23; first compound 0.253 µM): 0.534
relative viability (NCI-H23; first compound 2.53 µM): 0.517
relative viability (NCI-H23; first compound 8 µM): 0.442
relative viability (SW 900; first compound 2.53 µM): 0.52
relative viability (SW 900; first compound 8 µM): 0.454
relative viability (LCLC-103H; first compound 0.253 µM): 0.484
relative viability (LCLC-103H; first compound 0.8 µM): 0.459
relative viability (LCLC-103H; first compound 2.53 µM): 0.464
relative viability (LCLC-103H; first compound 8 µM): 0.47
relative viability (PC-3 [JPC-3]; first compound 0.253 µM): 0.545
relative viability (PC-3 [JPC-3]; first compound 0.8 µM): 0.511
relative viability (PC-3 [JPC-3]; first compound 2.53 µM): 0.548
relative viability (PC-3 [JPC-3]; first compound 8 µM): 0.57
relative viability (NCI-H441; first compound 0.253 µM): 0.239
relative viability (NCI-H441; first compound 0.8 µM): 0.205
relative viability (NCI-H441; first compound 2.53 µM): 0.264
relative viability (NCI-H441; first compound 8 µM): 0.202
relative viability (LOU-NH91; first compound 0.253 µM): 0.564
relative viability (LOU-NH91; first compound 0.8 µM): 0.515
relative viability (LOU-NH91; first compound 2.53 µM): 0.487
relative viability (LOU-NH91; first compound 8 µM): 0.429
relative viability (NCI-H1793; first compound 0.253 µM): 0.363
relative viability (NCI-H1793; first compound 2.53 µM): 0.296
relative viability (NCI-H1793; first compound 8 µM): 0.256
relative viability (ChaGo-K-1; first compound 0.253 µM): 0.946
relative viability (ChaGo-K-1; first compound 0.8 µM): 0.978
relative viability (ChaGo-K-1; first compound 2.53 µM): 1.01
relative viability (ChaGo-K-1; first compound 8 µM): 0.971
relative viability (NCI-H322M; first compound 0.253 µM): 0.53
relative viability (NCI-H322M; first compound 0.8 µM): 0.521
relative viability (NCI-H322M; first compound 2.53 µM): 0.473
relative viability (NCI-H322M; first compound 8 µM): 0.488
relative viability (HOP-62; first compound 0.253 µM): 0.45
relative viability (HOP-62; first compound 0.8 µM): 0.41
relative viability (HOP-62; first compound 2.53 µM): 0.455
relative viability (HOP-62; first compound 8 µM): 0.378
relative viability (EPLC-272H; first compound 0.253 µM): 0.34
relative viability (EPLC-272H; first compound 0.8 µM): 0.383
relative viability (EPLC-272H; first compound 2.53 µM): 0.333
relative viability (EPLC-272H; first compound 8 µM): 0.322
relative viability (NCI-H1651; first compound 0.253 µM): 0.504
relative viability (NCI-H1651; first compound 0.8 µM): 0.485
relative viability (NCI-H1651; first compound 2.53 µM): 0.526
relative viability (NCI-H1651; first compound 8 µM): 0.489
relative viability (NCI-H1755; first compound 0.253 µM): 0.451
relative viability (NCI-H1755; first compound 0.8 µM): 0.434
relative viability (NCI-H1755; first compound 2.53 µM): 0.429
relative viability (NCI-H1755; first compound 8 µM): 0.441
relative viability (NCI-H2228; first compound 0.253 µM): 1.05
relative viability (NCI-H2228; first compound 0.8 µM): 0.36
relative viability (NCI-H2228; first compound 2.53 µM): 1.04
relative viability (NCI-H2228; first compound 8 µM): 0.657
